# Experimental data: PMC5571359, “Screening the Medicines for Malaria Venture Pathogen Box across Multiple Pathogens Reclassifies Starting Points for Open-Source Drug Discovery” (Antimicrobial Agents and Chemotherapy, 2017)
# Read-outs that look alike come from different tables or passages of the source.
# Assays:
# HepG2 = conditions: cited from earlier work
# liver stage = conditions: cited from earlier work
# P. falciparum ABS = conditions: cited from earlier work; for EC50: ChEMBL Data; for IC50: read-out: Pf 3D7 Pbox IC50
# HEK293 cells = experiment: HEK293 resazurin cell cytotoxicity assay; conditions: Homo sapiens; for IC50: HEK293, read-out: HEK % Inhibition 20uM/IC50 Discovery Biology (IA)
# [1] = system: T. b. brucei 427 bloodstream trypanosomes; experiment: T. b. brucei resazurin viability assay; type: cell-based, Trypanosoma brucei brucei; conditions: Trypanosoma brucei; PBox compounds; read-out: IC50 T. brucei brucei (Discovery Biology)
# [2] = read-out: HepG2 PBox CC50 µM, HepG2 CC50, ref Pathogen Box supporting information
# [3] = liver stage, ref Pathogen Box supporting information, read-out: LIVER STAGE Pbox IC50
# [4] = TCMDC, read-out: TCMDC (ref 93) EX50
# [5] = Pf 3D7, ref Pathogen Box supporting information
# [6] = read-out: HepG2 PBox CC50 µM, ref PBox supporting information
# [7] = ref Pbox supporting information
# [8] = P. falciparum 3D7, ref PBox supporting information
# [9] = P. falciparum, read-out: NITD (ref 94) EC50
# [10] = NITD, read-out: NITD (ref 94) EC50
# [11] = P. falciparum, read-out: TCMDC (ref 93) EX50
SMILES,CC50 (HepG2; [2]) [µM],IC50 (liver stage; [3]) [nM],EC50 (P. falciparum ABS; [4]) [nM],IC50 (P. falciparum ABS; [5]) [nM],CC50 (HepG2; [6]) [µM],IC50 (liver stage; [7]) [nM],IC50 (P. falciparum ABS; [8]) [nM],further results
CN(C)CCNC(=O)N1CCCN(c2ncnc3cc(-c4ccccc4)sc23)CC1 [MMV024195],> 10,1970,790,1580,,,,
CCOc1ccccc1NC(C)C(=O)Nc1cc(C(F)(F)F)ccc1N1CCOCC1 (centres unmarked) [MMV407834],,,,,> 10,> 10000,420,
O=C(Nc1cccc(Cl)c1)c1cnc(N2CCN(c3ccncc3)CC2)c(Cl)c1 [MMV024406],> 10,2350,960,830,,,,
O=C(Nc1ccc(N2CCNCC2)nc1)c1oc(-c2ccccc2)nc1C(F)(F)F [MMV024937],> 10,2550,980,1220,,,,
O=C1N(Cc2cc3ccccc3s2)CC2CN(Cc3ccccc3)CCN12 (centres unmarked) [MMV084603],,,,,> 10,200,1160,EC50 (P. falciparum ABS; [9]): 440 nM
Cc1cc(C(=O)Nc2cnn(Cc3ccc(Cl)cc3Cl)c2)no1 [MMV009054],> 10,1390,,1880,,,,EC50 (P. falciparum ABS; [10]): 620 nM
O=C1Nc2ccc(Br)cc2C12NCCc1c2[nH]c2ccccc12 (centres unmarked) [MMV006239],> 10,> 10000,,510,,,,EC50 (P. falciparum ABS; [10]): 200 nM
Cc1nnc(NC(=O)c2cn(-c3ccccc3)nc2-c2ccccc2C)o1 [MMV020320],> 10,170,570,710,,,,
CNC(=O)C1Cc2c([nH]c3cc(Cl)ccc23)C2(CCN(CCc3ccccc3)CC2)N1 (centres unmarked) [MMV031011],,,,,> 10,4510,860,IC50 (HEK293 cells): > 20000 nM; EC50 (P. falciparum ABS; [11]): 930 nM
FC(F)(F)c1cccc(-c2nc3c(NCc4ccncc4)nccc3[nH]2)c1 [MMV032967],,,,,> 10,> 10000,510,
CN1CCN(c2nccc3nc(-c4ccc(F)c(F)c4)[nH]c23)CC1 [MMV676260],,,,,> 10,> 10000,1130,
O=C(NC1CC1)c1ccc(N2CCOc3ccc(Cl)cc32)s1 [MMV020537],> 10,3480,800,1030,,,,
Cc1ccc(S(=O)(=O)n2cc(-c3ccnc(N)c3)c3cc(Br)cnc32)cc1 [MMV024114],> 6,> 6000,900,630,,,,"inhibition at 20 µM (HEK293 cells; HEK293, read-out: HEK % Inhibition 20uM/IC50 Discovery Biology): 60%"
COc1ccc(CN2CCOc3ccc(C(C)(O)CN(C)C)cc3C2)cc1C (centres unmarked) [MMV008439],> 10,930,,> 2000,,,,EC50 (P. falciparum ABS; [10]): 820 nM
Cc1cc(C(=O)Nc2ccc(-c3ccccc3)cc2)no1 [MMV020152],> 10,> 10000,690,820,,,,
CC1CC1C(=O)NC1CCN(CC2(c3ccccc3)CCCCC2)CC1 (centres unmarked) [MMV020120],> 10,2250,640,580,,,,
CCOc1ccc(-c2nc(NC(=O)CS(=O)(=O)c3ccccc3)sc2C)cc1 [MMV007638],> 10,> 10000,510,660,,,,EC50 (P. falciparum ABS; [10]): 530 nM
Clc1cccc(C(c2ccc(CN3CCNCC3)cc2)n2ccnc2)c1 (centres unmarked) [MMV663250],,,,,> 10,> 10000,1630,IC50 (HEK293 cells): > 20000 nM
Cc1cccc(NC(=O)c2cc(S(=O)(=O)N(C)c3ccc(F)cc3)ccc2Cl)n1 [MMV676528],,,,,> 10,6770,1580,
c1csc(-c2cnc3sc(NCC4CCOCC4)nn23)c1 [MMV010764],> 10,> 10000,,1370,,,,

SMILES,CC50 (HepG2; [2]) [µM],IC50 (liver stage; [3]) [nM],EC50 (P. falciparum ABS; [4]) [nM],IC50 (P. falciparum ABS; [5]) [nM],CC50 (HepG2; [6]) [µM],IC50 (liver stage; [7]) [nM],IC50 (P. falciparum ABS; [8]) [nM],further results
Cc1cccc(C(=O)Nc2ccnc(N(C)C3CCN(CC(C)C)CC3)c2)c1 [MMV024829],,> 10000,870,2100,,,,CC50 (HepG2): > 10 µM
OCCc1ccc(Nc2nccc(-c3nnc4ccccn34)n2)cc1 [MMV028694],,,,,8.1,1470,1080,IC50 [1]: 2390 nM; IC50 (HEK293 cells): > 20000 nM; EC50 (P. falciparum ABS; [11]): 900 nM
O=C1COCc2ccc(Br)cc2N1Cc1ccc(C(F)(F)F)cc1 [MMV032995],,,,,,2000,960,
Cc1cc(C)n2nc(C(=O)Nc3cc(C(F)(F)F)ccc3N3CCOCC3)nc2n1 [MMV019087],> 10,1210,120,220,,,,
Cc1ccc(NC(=O)c2cc(S(=O)(=O)NC(C)(C)C)ccc2C)nc1 [MMV020289],> 7.5,7350,760,930,,,,
C[C@]1(O)C[C@@H](c2nc(-c3ccc4ccc(-c5ccccc5)nc4c3)c3c(N)nccn32)C1 [MMV676605],,,,,,360,> 2000,CC50 (HepG2): > 10 µM
COc1cncc(-c2cncc(N3CCN(c4ccncc4)CC3)n2)c1 [MMV085071],,,,,> 10,> 7500,100,EC50 (P. falciparum ABS; [9]): 80 nM
Cc1nc(-c2cccc(NCc3ccccc3)c2)[nH]c1C [MMV023227],> 10,4590,860,1940,,,,
NCC(=O)N1CCn2c(nc(-c3ccccc3)c2Nc2ccc3c(c2)OCO3)C1 [MMV011691],,3780,,640,,,,CC50 (HepG2): > 10 µM; EC50 (P. falciparum ABS; [10]): 160 nM
CC(C)C(NC(=O)Cc1cccc2ccccc12)C(=O)Nc1cccc(C#N)c1 (centres unmarked) [MMV020591],> 10,9150,660,960,,,,
C[C@H](C(N)=O)N1CCCC[C@H]1c1ccc(OCc2cccc(F)c2)cc1 [MMV676269],,,,,> 10,1360,> 2000,EC50 (P. falciparum ABS; [11]): 990 nM
Cc1ccc(S(=O)(=O)N2CCN(C(=O)c3cc(-c4ccccc4)n[nH]3)CC2)cc1 [MMV019742],> 10,630,600,1040,,,,
COc1cccc(-c2cc3c(Nc4cccnc4)nccc3[nH]2)c1 [MMV392832],,,,,> 10,> 10000,1280,
O=C(NC1CCN(c2ccnc3ccccc23)C1)c1cccc(C(F)(F)F)c1 (centres unmarked) [MMV023388],> 10,6540,900,710,,,,
Cc1cnc(CCNC(=O)c2cc(-c3ccc(Cl)cc3)cs2)[nH]1 [MMV676350],,,,,> 10,8580,810,EC50 (P. falciparum ABS; [11]): 240 nM
Nc1nccc2ccc(Oc3ccncc3)cc12 [MMV026313],,,,,> 10,> 10000,230,EC50 (P. falciparum ABS; [11]): 480 nM
Nc1ccc(C(=O)Nc2ccc(-c3nc4ccccc4o3)cc2)cc1 [MMV007920],> 10,> 10000,,1550,,,,EC50 (P. falciparum ABS; [10]): 940 nM
Cc1ccc(Oc2ccc(NC(=O)CNc3ccccc3N3CCCC3=O)cc2)cc1 [MMV020512],9.8,9100,370,480,,,,
O=C(NC1CC1)c1ccc(N2CCC(Cc3ccccc3)CC2)nc1 [MMV024397],> 10,1410,760,1330,,,,
